Test: in vitro
Conditions: rat, microsomes
Protocol: Buffer solutions were prepared as follows: • a. Buffer A: 0.1 M monobasic potassium phosphate buffer containing 1.0 mM EDTA. • b. Buffer B: 0.1 M dibasic potassium phosphate buffer containing 1.0 mM EDTA. • c. Buffer C: 0.1 M potassium phosphate buffer containing 1.0 mM EDTA was adjusted to pH 7.4 by titrating 700 mL of Buffer B with Buffer A while monitoring with a pH meter. • 2. An NADPH stock solution (6 mM) was prepared by dissolving NADPH into Buffer C. • 3. Spiking solutions were prepared for the reference compound (ketanserin) and the test compounds as follows: • a. A 500 μM spiking solution of the reference compound (ketanserin) was generated by adding 10 μL of a 10 mM stock solution of ketanserin in DMSO into 190 μL acetonitrile. A 1.5 μM spiking solution in microsomes (0.75 mg/mL) was generated by adding 1.5 μL of the 500 μM spiking solution and 18.75 μL of 20 mg/mL rat liver microsomes into 479.75 μL of Buffer C while cooling with ice. • b. […] A 0.75 μM spiking solution in microsomes (0.75 mg/mL) was generated by adding 1.5 μL of the 250 μM spiking solution and 18.75 μL of 20 mg/mL rat liver microsomes into 479.75 μL of Buffer C while cooling with ice. • 4. 30 μL of 1.5 μM spiking solution containing 0.75 mg/mL microsomes solution was dispensed into assay plates designated for different time points (0 min, 5 min, 15 min, 30 min, and 45 min; or 0 min, 15 min, 30 min, 45 min, and 60 min as shown in Tables 1-5 below) while cooling with ice. • 5. For the 0 min time point assay plate, 135 μL of ACN containing IS followed immediately by 15 μL of the 6 mM NADPH stock solution were added to the wells of the 0 min assay plate. • 6. All assay plates other than the 0 min assay plate were pre-incubated at 37° C. for 5 min, and then 15 μL of the 6 mM NADPH stock solution was added to the wells of the assay plates to start the reaction and timing. At the appropriate time (5 min, 15 min, 30 min, 45 min, or 60 min), 135 μL of ACN containing IS was added to the wells of the corresponding assay plates, respectively, to stop the reaction. • 7. After quenching, the plates were shaken in a vibrator (IKA, MTS 2/4) for 10 min (600 rpm/min) and then centrifuged at 5594 g for 15 min (Thermo Multifuge×3R). • 8. After centrifugation, 50 μL of the supernatant from each well was transferred into a 96-well sample plate containing 50 μL of ultrapure water (Millipore, ZMQS50F01) for LC/MS analysis.

[2H]C1([2H])NC([2H])([2H])C([2H])(c2ccc(-n3cc4cccc(C(N)=O)c4n3)cc2)C([2H])([2H])C1([2H])[2H] (racemic) [Example 3, 2-(4-(piperidin-3-yl-2,2,3,4,4,5,5,6,6-d9)phenyl)-2H-indazole-7-carboxamide]
Percent Remaining (%) 0 min (0 h, 0.5 µM, pH 7.4): 100.00% | Percent Remaining (%) 15 min (0.25 h, 0.5 µM, pH 7.4): 92.77% | Percent Remaining (%) 30 min (0.5 h, 0.5 µM, pH 7.4): 82.19% | Percent Remaining (%) 45 min (0.75 h, 0.5 µM, pH 7.4): 74.60% | Percent Remaining (%) 60 min (1 h, 0.5 µM, pH 7.4): 69.31% | CLint scaled at 0.5 µM (pH 7.4, Clint): 22.7 mL/min/kg | half-life at 0.5 µM (pH 7.4, T1/2): 1.82 h
